From patent US20010009913A1, “Anxiety method” (priority 1999, published 2001)
“Also recorded” adds a separate entry of the source. Read-outs that look alike come from different tables or passages of the source.

Experiments:
human 5-HT1A receptor = target: T1, human 5-HT1A receptor (Homo sapiens, UniProt P08908); assay: 5-HT1A receptor binding assay; conditions: for Ki: read-out: K1 value
T1 construct: expressed in transfected cells; host or cells: HEK293 cells
T1 sequence (P08908 1-422): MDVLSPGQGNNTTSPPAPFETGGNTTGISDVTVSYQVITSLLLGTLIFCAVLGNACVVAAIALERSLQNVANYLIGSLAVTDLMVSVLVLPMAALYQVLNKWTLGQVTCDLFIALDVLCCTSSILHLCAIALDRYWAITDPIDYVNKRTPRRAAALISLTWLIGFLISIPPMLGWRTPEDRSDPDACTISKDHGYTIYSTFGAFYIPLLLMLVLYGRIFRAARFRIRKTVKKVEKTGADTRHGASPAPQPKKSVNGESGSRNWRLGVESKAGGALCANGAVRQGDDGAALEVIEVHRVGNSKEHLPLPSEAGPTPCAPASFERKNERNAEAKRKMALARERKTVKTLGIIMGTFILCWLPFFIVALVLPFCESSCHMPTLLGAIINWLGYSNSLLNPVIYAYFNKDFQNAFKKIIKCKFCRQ
Procedure: Membranes are prepared for binding using the human 5-HT1A receptor expressed in HEK293 cells. Cells are collected and ruptured using a dounce homogenizer. The cells are spun at 18000xg for 10 minutes and the pellet is resuspended in assay buffer, frozen in liquid nitrogen and kept at −80° C. until the day of the assay.
A total of 30 ug protein is used per well. The assay is carried out in 96-deep-well plates. The assay buffer is 50 mM HEPES containing 2.5 mM MgCl2 and 2 mM EGTA. […] 10 mM serotonin serves as blocking agent to determine non-specific binding. The reaction is terminated by the addition of 1 ml of ice cold 50 mM HEPES buffer and rapid filtration through a Brandel Cell Harvester using Whatman GF/B filters. The filter pads are counted in an LKB Trilux liquid scintillation counter. IC50 values are determined using non-linear regression by Excel-fit.

[1] = Human pharmacokinetic study, oral buspirone BID for 25 days
[2] = Modified Vogel Conflict test; format: in vivo; conditions: earlier in-house testing
Description: Earlier in-house functional testing of BMY 28674 utilized an in vivo test method based on modification of the Vogel Conflict test, a simple reliable conflict procedure for testing antianxiety agents (see: Vogel, et al., Psychopharmacologia, (Berl.) 21, pp.1-7, 1971). […] No useful antianxiety activity has been ascribed to BMY 28674 previously.

rat pups = assay: Rat pup isolation-induced ultrasonic vocalization test (vocalization and locomotor activity); format: in vivo; conditions: sc, 30 min prior to test; for ID50, dose predicted to reduce the number of ultrasonic calls by 50%: 9-11 day old rat pups, cold plate
Description: Ultrasonic vocalizations emitted by rat pups following isolation from their mother and littermates and subjected to a variety of environmental stimuli (e.g., cold temperature) has proven to be a sensitive method for assessing potential anxiolytic and anxiogenic compounds (Winslow and Insel, 1991, Psychopharmacology, 105:513-520). Psychoactive compounds purported to be anxiolytic suppress the frequency of ultrasonic calls whereas, calls are increased by drugs with anxiogenic properties. More importantly, the isolation-induced ultrasonic vocalization paradigm appears to be most sensitive for detecting anxiolytic properties across a broad spectrum of drug classes such as benzodiazepines, 5-HT reuptake inhibitors, 5-HT1A agonists as well as NMDA antagonists.
Harlan Sprague-Dawley rat pups (male and female) were housed in polycarbonate cages with the dam until 9-11 days old. Thirty minutes before testing, pups were removed from the dam, placed into a new cage with a small amount of home bedding and brought into the lab and placed under a light to maintain body temperature at 37° C. Pups were then weighed, sexed, marked and returned to the litter group until behavioral assessment. Testing took place in a Plexiglas recording chamber that contained a metal plate maintained at (18-20° C.) with a 5×5 cm grid drawn on the plate. A microphone was suspended 10 cm above the plate to record ultrasonic vocalizations. Ultrasonic calls were recorded using the Noldus UltraVox system providing on-line analysis of the frequency and duration of calls. The number of grid cells entered by the pup was also collected by visual scoring. […] Immediately following the collection of the baseline measures, pups were injected with vehicle or drug subcutaneously at the nape of the neck and returned to its littermates. […] Baseline differences and percent change from baseline for the frequency of ultrasonic vocalizations and grid cell crossings were analyzed using a one-way ANOVA. […]

dorsal raphe neurons [3] = assay: Inhibition of dorsal raphe neuronal firing after systemic administration; format: in vivo; conditions: previous in-house testing, I.V. and intragastric, rats
Description: See: VanderMaelen, et al., Eur. J. Pharmacol., 129, pp. 123-30, 1986. While one metabolite, the structural fragment 1-(2-pyrimidinyl)piperazine, also known as 1-PP, [drawing 3]

[4] = Gammans et al. 1986; cited from earlier work
dorsal raphe neurons [5] = conditions: VanderMaelen et al. 1986; cited from earlier work
CYP3A4 = assay: Inhibition of the metabolism of buspirone by ketoconazole in pooled HLM; conditions: ketoconazole concentrations up to 0.125 μM
[6] = membranes of HEK293 cells, 1 nM 3H-8-OH-DPAT, read-out: IC50
[7] = membranes of HEK293 cells, 1 nM 3H-8-OH-DPAT

SMILES: O=C1CC2(CCCC2)C(O)C(=O)N1CCCCN1CCN(c2ncccn2)CC1 (centres unmarked) [BMY 28674, 6-hydroxy-8-[4-[4-(2-pyrimidinyl)-piperazinyl]-butyl]-8-azaspiro[4.5]-7,9-dione]
- IC50 (human 5-HT1A receptor; [6]): 114 nM
- Ki (human 5-HT1A receptor; [7]): 57 nM
- blood concentration of BMY 28674 relative to 1-PP ([1]; after oral buspirone, human subjects): several-fold greater; also recorded: several-fold higher
- antianxiety response in the Vogel test [2]: did not elicit an antianxiety response
- ID50, dose predicted to reduce the number of ultrasonic calls by 50% (rat pups): 0.13 mg/kg
- ID50 dose estimated to reduce locomotor activity (rat pups; grid cell crossings): 0.41 mg/kg

SMILES: c1cnc(N2CCNCC2)nc1 [1-PP, 1-(2-pyrimidinyl)piperazine]
- IC50 (human 5-HT1A receptor): > 1000 nM
- binding / affinity at the 5-HT1A receptor (human 5-HT1A receptor): does not demonstrate binding
- inhibition of dorsal raphe neuronal firing (dorsal raphe neurons [3]): weak inhibition

SMILES: O=C1CC2(CCCC2)CC(=O)N1CCCCN1CCN(c2ncc(O)cn2)CC1 [5-OH-buspirone (BMY 14131)]
- IC50 (human 5-HT1A receptor; [6]): 928 nM
- Ki (human 5-HT1A receptor; [7]): 464 nM

SMILES: O=C1CC2(CCCC2)CC(=O)N1CCCCN1CCN(c2ncccn2)CC1 [Buspirone]
- variation of maximum plasma concentration between individuals [4]: up to 10 fold
- inhibition of firing of dorsal raphe neurons (dorsal raphe neurons [5]): potently inhibits
- concentration at 2 h ([1]; human, blood, po): < 1 ng/mL
- safety and tolerability ([1]; multiple oral doses, five dose levels 5-30 mg BID, healthy adults, 25 days): safe and generally well tolerated
- mean blood level concentration of buspirone ([1]; oral buspirone BID, at the higher doses, FIG. 3): 1 to 2 ng/mL
- ID50, dose predicted to reduce the number of ultrasonic calls by 50% (rat pups): 0.10 mg/kg

SMILES: O=C1CC2(CCC(O)C2)CC(=O)N1CCCCN1CCN(c2ncccn2)CC1 (centres unmarked) [3-OH-buspirone (BMY 14295)]
- IC50 (human 5-HT1A receptor; [6]): 652 nM
- Ki (human 5-HT1A receptor; [7]): 326 nM

SMILES: CC(=O)N1CCN(c2ccc(OCC3COC(Cn4ccnc4)(c4ccc(Cl)cc4Cl)O3)cc2)CC1 (centres unmarked) [ketoconazole]
- effect on buspirone metabolism (CYP3A4): No effect
